# Experimental data from patent publication US20250176598A1, “AMIDE COMPOUNDS AND THEIR USE AS FLAVOR MODIFIERS” (Firmenich Incorporated, priority 2022, published 2025).
# Target: T1, T1R umami taste receptor (Homo sapiens, UniProt Q7RTX0+Q7RTX1)
# T1 sequence (Q7RTX1 21-841): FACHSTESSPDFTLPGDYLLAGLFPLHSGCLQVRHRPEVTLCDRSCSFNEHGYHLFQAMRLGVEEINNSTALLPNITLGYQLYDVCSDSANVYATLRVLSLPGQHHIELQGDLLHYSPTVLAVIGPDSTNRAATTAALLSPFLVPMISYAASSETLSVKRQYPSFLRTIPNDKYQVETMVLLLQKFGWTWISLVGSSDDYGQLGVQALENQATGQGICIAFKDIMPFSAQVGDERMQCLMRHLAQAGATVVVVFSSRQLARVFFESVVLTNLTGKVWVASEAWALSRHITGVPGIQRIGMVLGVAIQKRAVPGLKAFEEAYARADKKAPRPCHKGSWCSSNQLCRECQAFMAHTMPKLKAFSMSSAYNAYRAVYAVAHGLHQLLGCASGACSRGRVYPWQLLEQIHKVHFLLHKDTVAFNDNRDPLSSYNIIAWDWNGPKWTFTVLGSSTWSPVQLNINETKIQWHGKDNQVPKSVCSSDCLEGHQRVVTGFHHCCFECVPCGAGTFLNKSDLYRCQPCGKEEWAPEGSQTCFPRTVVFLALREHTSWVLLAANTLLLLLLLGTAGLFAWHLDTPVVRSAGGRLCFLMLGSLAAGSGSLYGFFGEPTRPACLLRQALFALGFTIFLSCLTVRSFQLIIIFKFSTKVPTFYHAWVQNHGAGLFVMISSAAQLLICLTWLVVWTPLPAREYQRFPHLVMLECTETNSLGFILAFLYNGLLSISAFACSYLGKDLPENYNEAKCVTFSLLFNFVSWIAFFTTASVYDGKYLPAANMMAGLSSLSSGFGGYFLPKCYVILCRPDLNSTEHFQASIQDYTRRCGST
# T1 sequence (Q7RTX0 21-852): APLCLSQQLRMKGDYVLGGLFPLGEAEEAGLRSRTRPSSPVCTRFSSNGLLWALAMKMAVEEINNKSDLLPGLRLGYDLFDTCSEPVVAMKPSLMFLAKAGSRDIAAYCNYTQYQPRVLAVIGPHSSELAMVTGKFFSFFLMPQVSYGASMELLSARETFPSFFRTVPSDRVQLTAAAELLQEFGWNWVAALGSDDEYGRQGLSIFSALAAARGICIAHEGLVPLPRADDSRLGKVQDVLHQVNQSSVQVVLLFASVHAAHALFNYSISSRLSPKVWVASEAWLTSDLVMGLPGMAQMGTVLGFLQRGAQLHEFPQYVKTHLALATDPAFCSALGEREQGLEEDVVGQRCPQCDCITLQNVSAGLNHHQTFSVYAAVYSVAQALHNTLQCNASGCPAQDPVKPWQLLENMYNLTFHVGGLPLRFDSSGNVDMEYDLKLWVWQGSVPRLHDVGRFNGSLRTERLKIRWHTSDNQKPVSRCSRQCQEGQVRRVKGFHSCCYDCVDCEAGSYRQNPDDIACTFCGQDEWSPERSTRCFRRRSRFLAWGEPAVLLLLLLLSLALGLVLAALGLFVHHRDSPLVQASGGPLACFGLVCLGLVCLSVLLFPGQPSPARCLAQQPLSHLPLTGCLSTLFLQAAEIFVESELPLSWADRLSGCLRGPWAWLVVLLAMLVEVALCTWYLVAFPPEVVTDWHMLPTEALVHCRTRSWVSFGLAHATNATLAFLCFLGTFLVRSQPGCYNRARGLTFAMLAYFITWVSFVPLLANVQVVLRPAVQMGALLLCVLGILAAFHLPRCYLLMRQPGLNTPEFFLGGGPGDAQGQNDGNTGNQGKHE
# Test: in vitro cell-based assay, cells expressing the T1R umami taste receptor; enhancement of MSG
# Conditions: for MSG Enh. Ratio: MSG enhancement ratio at a particular concentration (concentration not given); for EC50: cells that express the T1R umami taste receptor, dose-binding curves; for MSG Enh. Ratio @ [10 uM]: compound at 10 uM
# Protocol: Each of Compounds 101-145 was synthesized according to one of the general procedures set forth above in Examples 1 and Example 2. Thereafter, the compounds were tested in an in vitro cell-based assay having cells that express the T1R umami taste receptor. Dose-binding curves were recorded and the EC50 was determined for enhancement of MSG binding. Table 2 sets forth the calculated EC50 values for certain tested compounds as well as the MSG enhancement ratio at a particular concentration.
Compound,MSG Enh. Ratio,EC50,MSG Enh. Ratio @ [10 uM]
"CCC(C)[C@@H](CO)NC(=O)/C=C/c1ccc(OC)cc1 (stereo in doubt) [Compound 115, (E)-N-((2S,3R)-1-hydroxy-3-methylpentan-2-yl)-3-(4-methoxyphenyl)acrylamide]",1.5,> 50 µM,–
"CC[C@H](C)[C@@H](CO)NC(=O)c1ccc(C(C)C)cc1 [Compound 103, N-((2S,3S)-1-hydroxy-3-methylpentan-2-yl)-4-isopropylbenzamide]",1.2,> 50 µM,–
"Cc1ccc(C(=O)N[C@H](CO)CC(C)C)cc1C [Compound 104, (S)-N-(1-hydroxy-4-methylpentan-2-yl)-3,4-dimethylbenzamide]",2.8,> 50 µM,–
"CC[C@H](C)[C@@H](CO)NC(=O)c1ccc(C)c(C)c1 [Compound 106, N-((2S,3S)-1-hydroxy-3-methylpentan-2-yl)-3,4-dimethylbenzamide]",2.5,> 50 µM,–
"COc1cc(OC)cc(C(=O)N[C@H](CO)Cc2ccccc2)c1 [Compound 107, (S)-N-(1-hydroxy-3-phenylpropan-2-yl)-3,5-dimethoxybenzamide]",1.9,> 50 µM,–
"O=C(N[C@H](CO)Cc1ccccc1)c1ccc2c(c1)OCO2 [Compound 111, (S)-N-(1-hydroxy-3-phenylpropan-2-yl) benzo[d][1,3]dioxole-5-carboxamide]",1.8,> 50 µM,–
"COc1cccc(C(=O)N[C@H](CO)Cc2ccccc2)c1O [Compound 113, (S)-2-hydroxy-N-(1-hydroxy-3-phenylpropan-2-yl)-3-methoxybenzamide]",1.6,> 50 µM,–
"COc1ccc(/C=C/C(=O)N[C@H](CO)CC(C)C)cc1 [Compound 114, (S,E)-3-(4-methoxyphenyl)-N-(1-hydroxy-4-methylpentan-2-yl)acrylamide]",1.7,> 50 µM,–
"COc1ccc(/C=C/C(=O)N[C@H](CO)Cc2ccccc2)cc1 [Compound 116, (S,E)-3-(4-methoxyphenyl)-N-(1-hydroxy-3-phenylpropan-2-yl)acrylamide]",–,11 µM,6.9 @ [10 uM]
"CCOc1ccc(/C=C/C(=O)N[C@H](CO)CC(C)C)cc1 [Compound 117, (S,E)-3-(4-ethoxyphenyl)-N-(1-hydroxy-4-methylpentan-2-yl)acrylamide]",6.8,~25 µM,–
"CCOc1ccc(/C=C/C(=O)N[C@H](CO)Cc2ccccc2)cc1 [Compound 119, (S,E)-3-(4-ethoxyphenyl)-N-(1-hydroxy-3-phenylpropan-2-yl)acrylamide]",–,10 µM,6.1 @ [10 uM]
"Cc1ccc(C(=O)N[C@H](C(=O)O)C(C)C)cc1C [Compound 121, (3,4-dimethylbenzoyl)-L-valine]",1.1,> 50 µM,–
"Cc1ccc(C(=O)N[C@@H](CC(C)C)C(=O)O)cc1 [Compound 123, (4-methylbenzoyl)-L-leucine]",1.2,> 50 µM,–
"Cc1ccc(C(=O)N[C@@H](C(=O)O)C(C)C)cc1C [Compound 124, (3,4-dimethylbenzoyl)-D-valine]",1.2,> 50 µM,–
"Cc1ccc(C(=O)N[C@@H](CCC(=O)O)C(=O)O)cc1C [Compound 128, (3,4-dimethylbenzoyl)-L-glutamic acid]",1.4,> 50 µM,–
"CC(C)C[C@@H](NC(=O)c1ccc2c(c1)OCO2)C(=O)O [Compound 129, (benzo[d][1,3]dioxole-5-carbonyl)-D-leucine]",3.5,~20 µM,–
"O=C(O)CC[C@H](NC(=O)c1ccc2c(c1)OCO2)C(=O)O [Compound 131, (benzo[d][1,3]dioxole-5-carbonyl)-L-glutamic acid]",1.2,> 50 µM,–
"CC(C)C[C@H](NC(=O)/C=C/c1ccccc1)C(=O)O [Compound 133, Cinnamoyl-L-leucine]",1.1,> 50 µM,–

# More lines, main results first:
MSG Enh. Ratio,EC50,Compound,MSG Enh. Ratio @ [10 uM]
1.4,> 50 µM,"CC(C)c1ccc(C(=O)N[C@H](CO)Cc2ccccc2)cc1 [Compound 101, (S)-N-(1-hydroxy-3-phenylpropan-2-yl)-4-isopropylbenzamide]",–
1.4,> 50 µM,"CC(C)C[C@@H](CO)NC(=O)c1ccc(C(C)C)cc1 [Compound 102, (S)-N-(1-hydroxy-4-methylpentan-2-yl)-4-isopropylbenzamide]",–
3.4,> 50 µM,"Cc1ccc(C(=O)N[C@H](CO)Cc2ccccc2)cc1C [Compound 105, (S)-N-(1-hydroxy-3-phenylpropan-2-yl)-3,4-dimethylbenzamide]",–
1.3,> 50 µM,"COc1cc(OC)cc(C(=O)N[C@H](CO)CC(C)C)c1 [Compound 108, (S)-N-(1-hydroxy-4-methylpentan-2-yl)-3,5-dimethoxybenzamide]",–
1.1,> 50 µM,"CC[C@H](C)[C@@H](CO)NC(=O)c1cc(OC)cc(OC)c1 [Compound 109, N-((2S,3S)-1-hydroxy-3-methylpentan-2-yl)-3,5-dimethoxybenzamide]",–
1.4,> 50 µM,"CC[C@H](C)[C@@H](CO)NC(=O)c1ccc2c(c1)OCO2 [Compound 110, N-((2S,3S)-1-hydroxy-3-methylpentan-2-yl) benzo[d][1,3]dioxole-5-carboxamide]",–
2.3,> 50 µM,"CC(C)C[C@@H](CO)NC(=O)c1ccc2c(c1)OCO2 [Compound 112, (S)-N-(1-hydroxy-4-methylpentan-2-yl) benzo[d][1,3]dioxole-5-carboxamide]",–
6.0,~40 µM,"CCOc1ccc(/C=C/C(=O)N[C@H](CO)[C@@H](C)CC)cc1 [Compound 118, (E)-3-(4-ethoxyphenyl)-N-((2S,3S)-1-hydroxy-3-methylpentan-2-yl)acrylamide]",–
1.3,> 50 µM,"Cc1ccc(C(=O)N[C@H](Cc2ccccc2)C(=O)O)cc1 [Compound 120, (4-methylbenzoyl)-D-phenylalanine]",–
1.3,> 50 µM,"Cc1ccc(C(=O)N[C@H](Cc2ccccc2)C(=O)O)cc1C [Compound 125, (3,4-dimethylbenzoyl)-D-phenylalanine]",–
1.8,27 µM,"Cc1ccc(C(=O)N[C@H](CC(C)C)C(=O)O)cc1C [Compound 126, (3,4-dimethylbenzoyl)-D-leucine]",–
2.0,> 50 µM,"COc1ccc(C[C@H](NC(=O)c2ccc(C)c(C)c2)C(=O)O)cc1 [Compound 127, (S)-2-(3,4-dimethylbenzamido)-3-(4-methoxyphenyl) propanoic acid]",–
1.7,> 50 µM,"CC(C)[C@H](NC(=O)/C=C/c1ccccc1)C(=O)O [Compound 132, Cinnamoyl-L-valine]",–
1.2,> 50 µM,"O=C(O)CC[C@H](NC(=O)/C=C/c1ccccc1)C(=O)O [Compound 134, Cinnamoyl-L-glutamate]",–
2.0,> 50 µM,"COc1ccc(/C=C/C(=O)N[C@@H](Cc2ccc(OC)cc2)C(=O)O)cc1 [Compound 135, (S,E)-3-(4-methoxyphenyl)-2-(3-(4-methoxyphenyl)acrylamido)propanoic acid]",–
